Laboratory results from patent publication EP0668872B1 (priority 1992, dated 1994).

Tested on: calcium channels
Conditions: read-out: IC50 values for blocking calcium channels; cerebellar granule cells of 8 day old rats, 6, 7 and 8 days of culture; fura2/AM fluorescence, 37°C

With COc1ccc(CCN(C)CCCC(C#N)(c2ccc(OC)c(OC)c2)C(C)C)cc1OC (stereo not shown) [Verapamil] the IC50 was 4.8 µM.
